Earlier results, collected in patent US11793840B2, “Nano-armored single cell product for treating Parkinson's disease through bacteria and a preparation method thereof” (Tangyi Holdings(Shenzhen) Limited, priority 2021, dated 2023).

in-vivo terminal elimination half-life (in vivo): 25.1 min | oral bioavailability (oral administration of GABA): 9.81%
Compound: NCCCC(=O)O [GABA, Gamma-aminobutyric acid]
